Test results from ChEMBL document CHEMBL3045893, “QSAR analysis of N-myristoyltransferase inhibitors: antifungal activity of benzofurans” (Med Chem Res, 2009).

Biological target: T1, Glycylpeptide N-tetradecanoyltransferase (Candida albicans (strain SC5314 / ATCC MYA-2876) (Yeast), UniProt P30418)
T1 sequence (P30418 whole entry): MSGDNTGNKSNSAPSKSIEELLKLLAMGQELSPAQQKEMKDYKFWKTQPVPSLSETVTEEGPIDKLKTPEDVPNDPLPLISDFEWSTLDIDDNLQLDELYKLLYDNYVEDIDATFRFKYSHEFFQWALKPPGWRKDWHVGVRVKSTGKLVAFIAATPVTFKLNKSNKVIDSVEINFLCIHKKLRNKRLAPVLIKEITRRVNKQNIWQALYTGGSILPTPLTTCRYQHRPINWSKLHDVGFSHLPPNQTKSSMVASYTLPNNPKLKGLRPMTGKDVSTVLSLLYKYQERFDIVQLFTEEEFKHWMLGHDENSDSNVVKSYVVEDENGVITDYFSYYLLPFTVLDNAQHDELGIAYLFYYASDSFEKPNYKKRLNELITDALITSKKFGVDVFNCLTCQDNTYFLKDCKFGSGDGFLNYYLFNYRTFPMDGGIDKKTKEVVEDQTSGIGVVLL
Test: Inhibition of candida N-myristoyltransferase

| Compound | IC50 [nM] |
| --- | --- |
| CCOC(=O)c1oc2cccc(OCCNCc3cccnc3)c2c1C1CC1 | 4400 |
| CCOC(=O)c1oc2cccc(OCCNCc3ccccc3)c2c1C | 3300 |
| CCOC(=O)c1oc2cccc(OCCNCc3cccnc3)c2c1CC | 10000 |
| CCOC(=O)c1cc2c(OCCNCc3cccnc3)cccc2o1 | 79000 |
| CC(=O)c1nccn1-c1oc2cccc(OCCNCc3cccnc3)c2c1C | 1 |
| Cc1c(COc2ccccc2C#N)oc2cccc(OCCNCc3cccnc3)c12 | 17 |
| Cc1c(COc2cccc(F)c2)oc2cccc(OCCNCc3cccnc3)c12 | 110 |
| Cc1c(COc2ccc(F)cc2F)oc2cccc(OCCNCc3cccnc3)c12 | 7.5 |
| CCOC(=O)c1oc2cccc(OCC(O)CNC(C)(C)C)c2c1C (stereo not drawn) | 1200 |
| CCOC(=O)c1oc2cccc(OCCCCCNC(C)(C)C)c2c1C | 1500 |

Results, then the compound that gave them:

| IC50 [nM] | Compound |
| --- | --- |
| 1200 | Cc1c(CCc2ccccc2)oc2cccc(OCCNCc3cccnc3)c12 |
| 2200 | Cc1c(C(=O)Nc2ccccc2)oc2cccc(OCCNCc3cccnc3)c12 |
| 100 | CCOC(=O)c1oc2cccc(OCCNCc3cccnc3)c2c1C |
| 83000 | CCOC(=O)c1oc2cccc(OCCNCc3cccnc3)c2c1C(C)C |
| 3 | COCc1ccc2oc(-c3oc4cccc(OCCNCc5cccnc5)c4c3C)cc2c1 |
| 72 | Cc1c(COc2ccccc2)oc2cccc(OCCNCc3cccnc3)c12 |
| 8.3 | Cc1c(COc2ccccc2F)oc2cccc(OCCNCc3cccnc3)c12 |
| 5.2 | Cc1c(COc2ccc(F)cc2)oc2cccc(OCCNCc3cccnc3)c12 |
| 73 | Cc1c(COc2ccc(Cl)cc2)oc2cccc(OCCNCc3cccnc3)c12 |
| 9.4 | Cc1c(COc2ccc(C#N)cc2)oc2cccc(OCCNCc3cccnc3)c12 |
| 1600 | CCOC(=O)c1oc2cccc(OCCCN3CCCCC3)c2c1C |
| 4400 | CCOC(=O)c1oc2cccc(OCCCCNC(C)(C)C)c2c1C |
| 50000 | CCOC(=O)c1oc2cccc(OCCNC(C)(C)C)c2c1C |
